From PMC4628711, “Antiproliferative and Antiestrogenic Activities of Bonediol an Alkyl Catechol from Bonellia macrocarpa” (BioMed Research International, 2015)

Assays:
[1] = target: T1, ERα (estrogen receptor α) (Homo sapiens, UniProt P03372); assay: competitive [3H]-17β-estradiol radioligand binding, in vitro translated receptor (TNT reticulocyte lysate)
T1 construct: gene ESR1
T1 sequence (P03372 1-595): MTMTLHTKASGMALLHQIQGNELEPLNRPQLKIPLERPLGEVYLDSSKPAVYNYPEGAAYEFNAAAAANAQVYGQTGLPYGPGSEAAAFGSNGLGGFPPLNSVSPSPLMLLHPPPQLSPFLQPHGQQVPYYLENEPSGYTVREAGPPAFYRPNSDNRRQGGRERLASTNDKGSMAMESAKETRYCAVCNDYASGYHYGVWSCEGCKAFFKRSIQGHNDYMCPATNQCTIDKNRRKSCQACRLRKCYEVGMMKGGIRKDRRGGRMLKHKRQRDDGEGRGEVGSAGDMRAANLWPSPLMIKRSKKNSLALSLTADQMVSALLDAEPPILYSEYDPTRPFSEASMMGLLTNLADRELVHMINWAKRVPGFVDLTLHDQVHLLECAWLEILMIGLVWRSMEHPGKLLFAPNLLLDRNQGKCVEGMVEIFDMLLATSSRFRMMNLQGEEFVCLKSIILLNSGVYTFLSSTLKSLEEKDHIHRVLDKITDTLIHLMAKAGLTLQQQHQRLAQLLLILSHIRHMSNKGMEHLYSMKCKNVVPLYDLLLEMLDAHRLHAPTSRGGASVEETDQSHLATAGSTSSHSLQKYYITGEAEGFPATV

[2] = target: T2, ERβ (estrogen receptor β) (Homo sapiens, UniProt Q92731); assay: as above
T2 construct: gene ESR2
T2 sequence (Q92731 whole entry): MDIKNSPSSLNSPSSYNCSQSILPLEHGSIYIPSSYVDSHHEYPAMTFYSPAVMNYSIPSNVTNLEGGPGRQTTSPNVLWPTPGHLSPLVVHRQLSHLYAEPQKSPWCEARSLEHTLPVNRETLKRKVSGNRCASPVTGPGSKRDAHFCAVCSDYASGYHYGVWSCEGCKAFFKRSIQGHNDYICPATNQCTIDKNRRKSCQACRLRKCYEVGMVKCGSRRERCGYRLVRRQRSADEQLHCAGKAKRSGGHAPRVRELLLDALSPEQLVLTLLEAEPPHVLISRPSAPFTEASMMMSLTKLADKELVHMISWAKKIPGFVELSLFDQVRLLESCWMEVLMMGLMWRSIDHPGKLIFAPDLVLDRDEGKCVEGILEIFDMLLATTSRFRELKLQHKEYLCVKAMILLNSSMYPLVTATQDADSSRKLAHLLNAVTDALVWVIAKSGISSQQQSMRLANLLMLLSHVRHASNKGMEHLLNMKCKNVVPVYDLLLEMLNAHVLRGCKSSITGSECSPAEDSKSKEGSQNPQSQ

- IC50 [1]: 2500 nM
- IC50 [2]: 2100 nM
Substance: bonediol
